From US20250144067A1, “PERSONALIZED STARVATION THERAPY FOR CANCER” (Faeth Therapeutics, Inc., priority 2021, published 2025)
Where a name gives a salt, the structure may show the parent alone. Ends that are not written are not given here.

Key:
[1] = test system: NCI-H292 lung cancer cells; assay: FDA drug screening, complete media vs cholesterol-free media without statin (TABLE 1); assay type: cell-based, human
[2] = test system: NCI-H292 lung cancer cells; assay: FDA drug screening, complete media vs cholesterol-free media with simvastatin (TABLE 2); assay type: cell-based, human; conditions: for Cholesterol-free media + simvastatin (0.04 μM) / Complete Media: NCI-H292 cells
[3] = NCI-H292 cells, cholesterol-free media without statin, FDA drug library screen
[4] = NCI-H292 cells, complete media, FDA drug library screen
[5] = FDA drug library screen, cholesterol-free media with simvastatin 0.04 μM
[6] = FDA drug library screen, complete media
[7] = complete media vs cholesterol-free media + simvastatin (0.04 μM), >0 enhanced anti-cancer activity, about 0 neutral, <0 antagonist
[8] = NCI-H292 cells, cholesterol-free media without statin
[9] = complete vs cholesterol-free media, […]
[10] = complete media vs cholesterol-free media + simvastatin (0.04 μM), […]
[11] = Complete minus Cholesterol-free, >0 enhanced anti-cancer activity, about 0 neutral, <0 antagonist
[12] = complete media minus cholesterol-free media + simvastatin (0.04 μM), >0 enhanced anti-cancer activity, about 0 neutral, <0 antagonist
[13] = Complete minus Cholesterol-free, greater than 0 enhanced anti-cancer activity, about 0 neutral, below 0 antagonists
[14] = NCI-H292 cells in cholesterol-free media without statin
[15] = NCI-H292 cells in complete media
[16] = cholesterol-free media with simvastatin 0.04 μM, cell growth value in FDA drug screen
[17] = complete media, cell growth value in FDA drug screen
[18] = complete media minus cholesterol-free media + simvastatin, >0 enhanced anti-cancer activity, about 0 neutral, <0 antagonist
[19] = Complete minus Cholesterol-free, greater than 0 enhanced anti-cancer activity, about 0 neutral, below 0 antagonist
[20] = NCI-H292 cells, FDA drug library screen, cholesterol-free media without statin
[21] = NCI-H292 cells, FDA drug library screen, complete media
[22] = drug in cholesterol-free media with simvastatin 0.04 μM
[23] = complete vs cholesterol-free media, greater than 0 enhanced anti-cancer activity, about 0 neutral, below 0 antagonists
[24] = Complete minus Cholesterol-free, […]
[25] = complete media minus cholesterol-free media + simvastatin, […]

## O=C1NC(=O)C(c2ccccc2)(c2ccccc2)N1 [Phenytoin]
[1]; [3]
  Cholesterol-free: 0.8044
[1]; [4]
  Complete: 0.8965
[1]; complete vs cholesterol-free media, >0 enhanced anti-cancer activity, about 0 neutral, <0 antagonist
  Difference: 0.09
[2]; [5]
  Cholesterol-free media + simvastatin (0.04 μM): 1.316
[2]; [6]
  Complete Media: 1.23
[2]; [7]
  Difference: −0.09

## CCOC(=O)CCC(=O)O[C@H]1[C@H](O[C@@H]2[C@@H](C)[C@H](O[C@H]3C[C@@](C)(OC)[C@@H](O)[C@H](C)O3)[C@@H](C)C(=O)O[C@H](CC)[C@@](C)(O)[C@H](O)[C@@H](C)C(=O)[C@H](C)C[C@@]2(C)O)O[C@H](C)C[C@@H]1N(C)C [Erythromycin Ethylsuccinate]
[1]; [8]
  Cholesterol-free: 1.248
[1]; NCI-H292 cells, complete media
  Complete: 0.8907
[1]; [9]
  Difference: −0.36
[2]; [5]
  Cholesterol-free media + simvastatin (0.04 μM): 1.069
[2]; [6]
  Complete Media: 0.9797
[2]; [10]
  Difference: −0.09

## CC[C@H](C)[C@H](N)C(=O)O [L-Isoleucine]
[1]; [11]
  Difference: 0.06
[1]; [3]
  Cholesterol-free: 1.023
[1]; [4]
  Complete: 1.082
[2]; [5]
  Cholesterol-free media + simvastatin (0.04 μM): 2.302
[2]; [12]
  Difference: −1.28

## O=C(c1ccc(F)cc1)C1CCN(CCn2c(=O)[nH]c3ccccc3c2=O)CC1 [Ketanserin]
[1]; [13]
  Difference: −0.47
[1]; [14]
  Cholesterol-free: 1.183
[1]; [15]
  Complete: 0.7093
[2]; [16]
  Cholesterol-free media + simvastatin (0.04 μM): 1.439
[2]; [17]
  Complete Media: 1.462
[2]; [18]
  Difference: 0.02

## CC(=O)OCC(=O)[C@@]1(O)CC[C@H]2[C@@H]3CCC4=CC(=O)CC[C@]4(C)[C@@]3(F)[C@@H](O)C[C@@]21C [Fludrocortisone acetate]
[1]; [11]
  Difference: −0.30
[1]; [8]
  Cholesterol-free: 0.7353
[1]; NCI-H292 cells, complete media
  Complete: 0.437
[2]; [16]
  Cholesterol-free media + simvastatin (0.04 μM): 0.45
[2]; [17]
  Complete Media: 0.5624
[2]; [18]
  Difference: 0.11

## Clopidogrel (hydrogen sulfate)
[1]; [19]
  Difference: −0.10
[1]; [20]
  Cholesterol-free: 1.157
[1]; [21]
  Complete: 1.053
[2]; [22]
  Cholesterol-free media + simvastatin (0.04 μM): 1.048
[2]; drug in complete media
  Complete Media: 0.8246
[2]; [7]
  Difference: −0.22

## O=C1O[C@H]([C@@H](O)CO)C(O)=C1O [L-Ascorbic acid (sodium salt)]
[1]; [19]
  Difference: −0.14
[1]; [20]
  Cholesterol-free: 0.9664
[1]; [21]
  Complete: 0.8232
[2]; cholesterol-free media with simvastatin 0.04 μM, FDA drug library screen (TABLE 2)
  Cholesterol-free media + simvastatin (0.04 μM): 0.9802
[2]; complete media, FDA drug library screen (TABLE 2)
  Complete Media: 0.9199
[2]; [12]
  Difference: −0.06

## C[C@H](C(=O)O)c1cccc(C(=O)c2ccccc2)c1 [S-(+)-Ketoprofen]
[1]; [8]
  Cholesterol-free: 1.312
[1]; NCI-H292 cells, complete media
  Complete: 0.984
[1]; [23]
  Difference: −0.33
[2]; [22]
  Cholesterol-free media + simvastatin (0.04 μM): 0.9554
[2]; drug in complete media
  Complete Media: 0.7437
[2]; [7]
  Difference: −0.21

## N[C@H](Cc1ccc(O)cc1)C(=O)O [D-Tyrosine]
[1]; [11]
  Difference: −0.01
[1]; [3]
  Cholesterol-free: 1.081
[1]; [4]
  Complete: 1.068
[2]; FDA library drug in cholesterol-free media with simvastatin 0.04 μM
  Cholesterol-free media + simvastatin (0.04 μM): 1.43
[2]; FDA library drug in complete media
  Complete Media: 0.9975
[2]; [7]
  Difference: −0.43

## Cc1c(NC(=O)c2cccnc2)c(=O)n(-c2ccccc2)n1C [Nifenazone]
[1]; [13]
  Difference: −0.66
[1]; [14]
  Cholesterol-free: 1.466
[1]; [15]
  Complete: 0.8088
[2]; [16]
  Cholesterol-free media + simvastatin (0.04 μM): 0.9965
[2]; [17]
  Complete Media: 1.032
[2]; [18]
  Difference: 0.04

## O=C(O)[C@H](CC(=O)N1C[C@H]2CCCC[C@H]2C1)Cc1ccccc1 [Mitiglinide (Calcium)]
[1]; [13]
  Difference: −0.81
[1]; [14]
  Cholesterol-free: 1.668
[1]; [15]
  Complete: 0.8559
[2]; [22]
  Cholesterol-free media + simvastatin (0.04 μM): 1.855
[2]; drug in complete media
  Complete Media: 1.594
[2]; [7]
  Difference: −0.26

## C[C@H](CCC(=O)O)[C@H]1CC[C@H]2[C@@H]3[C@@H](O)C[C@@H]4C[C@H](O)CC[C@]4(C)[C@H]3CC[C@]12C [Ursodiol]
[1]; [8]
  Cholesterol-free: 1.392
[1]; NCI-H292 cells, complete media
  Complete: 0.9832
[1]; [23]
  Difference: −0.41
[2]; [5]
  Cholesterol-free media + simvastatin (0.04 μM): 1.413
[2]; [6]
  Complete Media: 1.314
[2]; [7]
  Difference: −0.10

## CCN1CCN(C(=O)N[C@@H](C(=O)N[C@@H]2C(=O)N3[C@@H]2SC(C)(C)[C@@H]3C(=O)[O-])c2ccccc2)C(=O)C1=O.[Na+] [Piperacillin (sodium)]
[1]; [19]
  Difference: −0.14
[1]; [20]
  Cholesterol-free: 1.282
[1]; [21]
  Complete: 1.138
[2]; [5]
  Cholesterol-free media + simvastatin (0.04 μM): 2.325
[2]; [12]
  Difference: −1.15

## O=C(Nc1nc(-c2cc(Cl)cs2)c(N2CCN(C3CCCCC3)CC2)s1)c1cnc(N2CCC(C(=O)O)CC2)c(Cl)c1 [Avatrombopag (hydrochloride)]
[1]; [19]
  Difference: −0.15
[1]; [20]
  Cholesterol-free: 0.9128
[1]; [21]
  Complete: 0.7673
[2]; [5]
  Cholesterol-free media + simvastatin (0.04 μM): 1.18
[2]; [6]
  Complete Media: 1.082
[2]; [7]
  Difference: −0.10

## COc1ccc(/C=C/C(=O)Nc2ccccc2C(=O)O)cc1OC [Tranilast]
[1]; [11]
  Difference: −0.27
[1]; [8]
  Cholesterol-free: 0.8255
[1]; NCI-H292 cells, complete media
  Complete: 0.5543
[2]; [22]
  Cholesterol-free media + simvastatin (0.04 μM): 1.221
[2]; drug in complete media
  Complete Media: 1.04
[2]; [7]
  Difference: −0.18

## Angiotensin II human (acetate) (DRVYIHPF; also: acetate salt; UniProt P01019 25-32, looked up)
[1]; [24]
  Difference: −0.23
[1]; [8]
  Cholesterol-free: 0.9412
[1]; NCI-H292 cells, complete media
  Complete: 0.7158
[2]; [6]
  Complete Media: 1.355
[2]; [25]
  Difference: 0.21

## CC1(C)CCC(C)(C)c2cc(NC(=O)c3ccc(C(=O)O)cc3)ccc21 [Tamibarotene]
[1]; [24]
  Difference: −0.24
[1]; [8]
  Cholesterol-free: 0.7767
[1]; NCI-H292 cells, complete media
  Complete: 0.5392
[2]; [5]
  Cholesterol-free media + simvastatin (0.04 μM): 0.556
[2]; [6]
  Complete Media: 0.7365
[2]; [25]
  Difference: 0.18

## N[C@@H](Cc1cc(I)c(Oc2cc(I)c(O)c(I)c2)c(I)c1)C(=O)O [L-Thyroxine]
[1]; [11]
  Difference: −0.28
[1]; [8]
  Cholesterol-free: 1.11
[1]; NCI-H292 cells, complete media
  Complete: 0.8302
[2]; [5]
  Cholesterol-free media + simvastatin (0.04 μM): 1.059
[2]; [6]
  Complete Media: 1.284
[2]; [18]
  Difference: 0.23

## Polidocanol
[1]; [3]
  Cholesterol-free: 0.7606
[1]; [4]
  Complete: 0.9235
[1]; [9]
  Difference: 0.16
[2]; [5]
  Cholesterol-free media + simvastatin (0.04 μM): 1.046
[2]; [6]
  Complete Media: 0.8917
[2]; [10]
  Difference: −0.15
